Data from patent US7700593B2, “Imidazo- and triazolo-pyridine compounds and methods of use thereof” (Amgen Inc., priority 2006, dated 2010).

Columns and labels:
THP1 cells = assay: Lipopolysaccharide-activated THP1 cell TNF production assay; type: cell-based, human; settings: Homo sapiens, THP-1; LPS-induced TNF-α production in THP1 cells
Method in brief: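 THP1 cells at 1E6/mL were stimulated with LPS (1 μg/mL prepared stock) alongside 3-fold serially diluted compound for 3 h at 37 °C. Secreted TNF-α was quantified by electrochemiluminescence sandwich immunoassay. Percent of DMSO control was fitted to a 4-parameter logistic equation.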

monocytes = assay: Lipopolysaccharide-activated monocyte TNF production assay (LPS induced TNF release); type: cell-based, human; settings: Homo sapiens, Monocyte; LPS induced TNF release from monocytes; read-out: LPS induced TNFa
Method in brief: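 Adherent monocytes from human PBMCs were pretreated with compound 60 min, then stimulated with E. coli LPS (30 ng/mL stock added) for 4 h at 37 °C. Supernatant TNF-α measured by sandwich ELISA; concentration giving 50% TNF reduction derived by polynomial fit.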

p38α = p38α (Homo sapiens, UniProt Q16539); assay: p38 in-vitro HTRF enzyme assay; type: biochemical; settings: IC50 value ranges
Method in brief: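 Activated recombinant human p38α with ATP and 100 nM GST-ATF2-Avitag, 1 h at RT in Tris pH 7.5/MgCl2 buffer; compound 10-point 3-fold series from about 1 μM final. HTRF 665/620 nm ratio; IC50 from 4-parameter fit, Ki via Cheng-Prusoff with experimental ATP Km.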

Sequence of p38α (Q16539 whole entry): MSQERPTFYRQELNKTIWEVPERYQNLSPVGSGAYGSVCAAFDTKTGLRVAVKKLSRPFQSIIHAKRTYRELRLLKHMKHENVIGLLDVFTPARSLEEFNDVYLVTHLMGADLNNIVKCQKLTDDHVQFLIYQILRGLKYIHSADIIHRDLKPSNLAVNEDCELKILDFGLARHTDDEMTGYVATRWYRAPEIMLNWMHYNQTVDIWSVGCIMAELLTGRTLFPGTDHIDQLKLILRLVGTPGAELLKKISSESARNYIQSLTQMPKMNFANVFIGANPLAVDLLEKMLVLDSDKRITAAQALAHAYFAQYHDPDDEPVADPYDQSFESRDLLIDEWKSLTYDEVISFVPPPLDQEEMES

Structure (SMILES)	IC50 (THP1 cells) [nM]	IC50 (monocytes) [nM]	IC50 (p38α) [nM]
Cc1c(F)cc(C(=O)NC2CC2)cc1-c1ccn2c(-c3c(Cl)cccc3Cl)nnc2c1 [Example 59, N-cyclopropyl-3-(3-(2,6-dichlorophenyl)[1,2,4]triazolo[4,3-a]pyridin-7-yl)-5-fluoro-4-methylbenzamide]	< 25	< 25	< 25
Cc1ncoc1-c1nnc2cc(-c3cc(C(=O)NC4CC4)cc(F)c3C)ccn12 [Example 60, N-cyclopropyl-3-fluoro-4-methyl-5-(3-(4-methyl-1,3-oxazol-5-yl)[1,2,4]triazolo[4,3-a]pyridin-7-yl)benzamide]	100 to 250	100 to 250	< 25
Cc1c(F)cc(C(=O)Nc2ccnn2C)cc1-c1ccn2c(-c3c(F)cccc3Cl)nnc2c1 [Example 61, 3-(3-(2-chloro-6-fluorophenyl)[1,2,4]triazolo[4,3-a]pyridin-7-yl)-5-fluoro-4-methyl-N-(1-methyl-1H-pyrazol-5-yl)benzamide]	25 to 100	100 to 250	25 to 100
Cc1ccc(C(=O)NC2CC2)cc1-c1ccn2c(-c3c(Cl)cccc3Cl)nnc2c1 [Example 62, N-cyclopropyl-3-(3-(2,6-dichlorophenyl)[1,2,4]triazolo[4,3-a]pyridin-7-yl)-4-methylbenzamide]	< 25	< 25	< 25
Cc1ccc(C(=O)NC2CC2)cc1-c1ccn2c(-c3c(F)cccc3Cl)nnc2c1 [Example 63, 3-(3-(2-chloro-6-fluorophenyl)[1,2,4]triazolo[4,3-a]pyridin-7-yl)-N-cyclopropyl-4-methylbenzamide]	< 25	< 25	< 25
Cc1c(F)cc(C(=O)NC2CC2)cc1-c1ccn2c(-c3c(F)cccc3F)nnc2c1 [Example 64, N-cyclopropyl-3-(3-(2,6-difluorophenyl)[1,2,4]triazolo[4,3-a]pyridin-7-yl)-5-fluoro-4-methylbenzamide]	< 25	< 25	< 25
Cc1ccc(C(=O)NC2CC2)cc1-c1ccn2c(Nc3ccccc3)nnc2c1 [Example 66, N-cyclopropyl-4-methyl-3-(3-(phenylamino)[1,2,4]triazolo[4,3-a]pyridin-7-yl)benzamide]	250 to 1000	100 to 250	< 25
Cc1ccc(C(=O)NC2CC2)cc1-c1ccn2c(-c3c(F)cccc3C(F)(F)F)nnc2c1 [Example 69, N-cyclopropyl-3-(3-(2-fluoro-6-(trifluoromethyl)phenyl)[1,2,4]triazolo[4,3-a]pyridin-7-yl)-4-methylbenzamide]	< 25	25 to 100	< 25
Cc1cc(F)c(C(=O)NC2CC2)cc1-c1ccn2c(-c3ccccc3Cl)nnc2c1 [Example 70, 5-(3-(2-chlorophenyl)[1,2,4]triazolo[4,3-a]pyridin-7-yl)-N-cyclopropyl-2-fluoro-4-methylbenzamide]	25 to 100	100 to 250	< 25
Cc1c(F)cc(C(=O)NC2CC2)cc1-c1ccn2c(-c3ccccc3C(F)(F)F)nnc2c1 [Example 74, N-cyclopropyl-3-fluoro-4-methyl-5-(3-(2-(trifluoromethyl)phenyl)[1,2,4]triazolo[4,3-a]pyridin-7-yl)benzamide]	< 25	< 25	< 25
Cc1ccc(C(=O)NC2CC2)cc1-c1ccn2c(N(C)c3ccccc3)nnc2c1 [Example 75, N-cyclopropyl-4-methyl-3-(3-(methyl(phenyl)amino)[1,2,4]triazolo[4,3-a]pyridin-7-yl)benzamide]	25 to 100	250 to 1000	< 25
Cc1ccc(C(=O)NC2CC2)cc1-c1ccn2c(-c3ccccc3Cl)nnc2c1C [Example 78, 3-(3-(2-chlorophenyl)-8-methyl[1,2,4]triazolo[4,3-a]pyridin-7-yl)-N-cyclopropyl-4-methylbenzamide]	25 to 100	250 to 1000	25 to 100
Cc1c(F)cc(C(=O)NC2CC2)cc1-c1ccn2c(-c3ccncc3Cl)nnc2c1 [Example 79, 3-(3-(3-chloro-4-pyridinyl)[1,2,4]triazolo[4,3-a]pyridin-7-yl)-N-cyclopropyl-5-fluoro-4-methylbenzamide]	< 25	25 to 100	< 25
Cc1ccc(C(=O)NC2CC2)cc1-c1ccn2c(-c3ccncc3Cl)nnc2c1 [Example 80, 3-(3-(3-chloro-4-pyridinyl)[1,2,4]triazolo[4,3-a]pyridin-7-yl)-N-cyclopropyl-4-methylbenzamide]	< 25	25 to 100	< 25
Cc1ccc(C(=O)NC2CC2)cc1-c1ccn2c(-c3c(C)cccc3Cl)nnc2c1 [Example 81, 3-(3-(2-chloro-6-methylphenyl)[1,2,4]triazolo[4,3-a]pyridin-7-yl)-N-cyclopropyl-4-methylbenzamide]	< 25	< 25	< 25
Cc1ccccc1-c1nnc2cc(-c3cc(C(=O)NC4CC4)cc(F)c3C)ccn12 [Example 82, N-cyclopropyl-3-fluoro-4-methyl-5-(3-(2-methylphenyl)[1,2,4]triazolo[4,3-a]pyridin-7-yl)benzamide]	< 25	< 25	< 25
Cc1cccc(F)c1-c1nnc2cc(-c3cc(C(=O)NC4CC4)cc(F)c3C)ccn12 [Example 83, N-cyclopropyl-3-fluoro-5-(3-(2-fluoro-6-methylphenyl)[1,2,4]triazolo[4,3-a]pyridin-7-yl)-4-methylbenzamide]	< 25	< 25	< 25
Cc1ccc(C(=O)NC2CC2)cc1-c1ccn2c(Cc3ccccc3)nnc2c1 [Example 89, N-cyclopropyl-4-methyl-3-(3-(phenylmethyl)[1,2,4]triazolo[4,3-a]pyridin-7-yl)benzamide]	100 to 250	250 to 1000	< 25
Cc1cc(Cl)c(C(=O)NC2CC2)cc1-c1ccn2c(-c3ccccc3Cl)nnc2c1 [Example 90, 2-chloro-5-(3-(2-chlorophenyl)[1,2,4]triazolo[4,3-a]pyridin-7-yl)-N-cyclopropyl-4-methylbenzamide]	1000 to 5000	> 5000	250 to 1000
Cc1cccc(Cl)c1-c1nnc2cc(-c3cc(C(=O)NC4CC4)cc(F)c3C)ccn12 [Example 91, 3-(3-(2-chloro-6-methylphenyl)[1,2,4]triazolo[4,3-a]pyridin-7-yl)-N-cyclopropyl-5-fluoro-4-methylbenzamide]	< 25	< 25	< 25
Cc1c(F)cc(C(=O)Nc2ccon2)cc1-c1ccn2c(-c3c(F)cccc3F)nnc2c1 [Example 92, 3-(3-(2,6-difluorophenyl)[1,2,4]triazolo[4,3-a]pyridin-7-yl)-5-fluoro-N-3-isoxazolyl-4-methylbenzamide]	< 25	< 25	< 25
Cc1ccc(C(=O)NC2CC2)cc1-c1ccn2c(C3CC3)nnc2c1 [Example 93, N-cyclopropyl-3-(3-cyclopropyl[1,2,4]triazolo[4,3-a]pyridin-7-yl)-4-methylbenzamide]	25 to 100	100 to 250	< 25
Cc1ccc(C(=O)NC2CC2)cc1-c1ccn2c(C3CCCCC3)nnc2c1 [Example 94, 3-(3-cyclohexyl[1,2,4]triazolo[4,3-a]pyridin-7-yl)-N-cyclopropyl-4-methylbenzamide]	25 to 100	100 to 250	< 25
